Several values for one entry are separate records, joined by “and”; a condition that tells them apart may be missing. Equal values may be shown once. Values belong to the molecule of their own block, whether it stands above or below them.
How the values were obtained:
[1] = log P by HPLC on a reversed-phase column (C 18), EEC Directive 79/831 Annex V.A8; type: physicochemical; conditions: for logP: HPLC, reversed-phase column (C 18), 40° C., 0.1% aqueous formic acid and acetonitrile, linear gradient 10% to 90% acetonitrile
Procedure, shortened: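 Reversed-phase C18 HPLC at 40° C, 0.1% aqueous formic acid/acetonitrile gradient from 10% to 90% acetonitrile. log P derived from retention times by linear interpolation between unbranched alkan-2-ones (3–16 carbons) of known log P.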

Phakopsora pachyrhizi = assay: In vivo preventive test on Phakopsora pachyrhizi (soybean rust); conditions: for protection: dose of 10 ppm of active ingredient
Protocol: In Vivo Preventive Test on Phakopsora pachyrhizi (Soybean Rust)
Solvent: 24.5 parts by weight of acetone • 24.5 parts by weight of N,N-dimethylacetamide
Emulsifier: 1 part by weight of alkylaryl polyglycol ether
To produce a suitable preparation of active compound, 1 part by weight of active compound is mixed with the stated amounts of solvent and emulsifier, and the concentrate is diluted with water to the desired concentration.
To test for preventive activity, young plants are sprayed with the preparation of active compound at the stated rate of application. After the spray coating has dried on, the plants are inoculated with an aqueous spore suspension of the causal agent of soybean rust (Phakopsora pachyrhizi) and stay for 24 h without light in an incubation cabinet at approximately 24° C. and a relative atmospheric humidity of 95%.
The plants remain in the incubation cabinet at approximately 24° C. and a relative atmospheric humidity of approximately 80% and a day/night interval of 12 h.
The test is evaluated 7 days after the inoculation. 0% means an efficacy which corresponds to that of the untreated control, while an efficacy of 100% means that no disease is observed.

Uromyces appendiculatus = assay: In vivo preventive test on Uromyces appendiculatus (bean rust); conditions: for protection: dose of 100 and 10 ppm of active ingredient
Protocol: In Vivo Preventive Test on Uromyces appendiculatus (Bean Rust)
(§1) Solvent: 5% by volume of Dimethyl sulfoxide • 10% by volume of Acetone
(§2) Emulsifier: 1 μL of Tween® 80 per mg of active ingredient
The active ingredients are made soluble and homogenized in a mixture of Dimethyl sulfoxide/Acetone/Tween® 80 and then diluted in water to the desired concentration.
The young plants of bean are treated by spraying the active ingredient prepared as described above. Control plants are treated only with an aqueous solution of Acetone/Dimethyl sulfoxide/Tween® 80.
After 24 hours, the plants are contaminated by spraying the leaves with an aqueous suspension of Uromyces appendiculatus spores. The contaminated bean plants are incubated for 24 hours at 20° C. and at 100% relative humidity and then for 10 days at 20° C. and at 70-80% relative humidity.
(§3) The test is evaluated 11 days after the inoculation. 0% means an efficacy which corresponds to that of the control plants while an efficacy of 100% means that no disease is observed.

Puccinia recondita = assay: In vivo preventive test on Puccinia recondita (brown rust on wheat); conditions: for protection: dose of 100 and 10 ppm of active ingredient
Protocol: In Vivo Preventive Test on Puccinia recondita (Brown Rust on Wheat)
as §1, §2
The active ingredients are made soluble and homogenized in a mixture of Dimethyl sulfoxide/Acetone//Tween® 80 and then diluted in water to the desired concentration.
The young plants of wheat are treated by spraying the active ingredient prepared as described above. Control plants are treated only with an aqueous solution of Acetone/Dimethyl sulfoxide/Tween® 80. After 24 hours, the plants are contaminated by spraying the leaves with an aqueous suspension of Puccinia recondita spores. The contaminated wheat plants are incubated for 24 hours at 20° C. and at 100% relative humidity and then for 10 days at 20° C. and at 70-80% relative humidity.
as §3

logP [1]: 4.19
Compound: Cc1ccc(C2(C)CC2)c(CN(C(=O)c2c(C(F)F)nn(C)c2F)C2CC2)c1 [I.071]
Efficacy (Phakopsora pachyrhizi; Table C1, dose 10 ppm): 99%
protection (Phakopsora pachyrhizi): at least 90%

Compound: Cn1nc(C(F)F)c(C(=O)N(Cc2cc(F)ccc2C2CC2)C2CC2)c1F [123 from WO-2010/130767, N-cyclopropyl-N-(2-cyclopropyl-5-fluorobenzyl)-3-(difluoromethyl)-5-fluoro-1-methyl-1H-pyrazole-4-carboxamide, reference compound]
Efficacy (Phakopsora pachyrhizi; Table C3, dose 10 ppm): 0%
protection (Phakopsora pachyrhizi): no protection

Compound: Cn1nc(C(F)F)c(C(=O)N(Cc2cc(F)ccc2C2(C)CC2)C2CC2)c1Cl [I.8 from WO-2013/156559, 5-chloro-N-cyclopropyl-3-(difluoromethyl)-N-[5-fluoro-2-(1-methylcyclopropyl)benzyl]-1-methyl-1H-pyrazole-4-carboxamide, reference compound]
Efficacy (Uromyces appendiculatus; Table B2, dose 10 ppm): 14%
Efficacy (Uromyces appendiculatus; Table B2, dose 100 ppm): 95%
protection (Uromyces appendiculatus; listed as I.8): total to poor (less than 20%) protection
Efficacy (Puccinia recondita; Table A1, dose 10 ppm): 38%
Efficacy (Puccinia recondita; Table A1, dose 100 ppm): 94%
protection (Puccinia recondita; listed as I.8): total to average (less than 40%) protection

chromatographic logP ([1]; reversed-phase HPLC column (C 18), preparation examples): 3.39
Compound: Cn1nc(C(F)F)c(C(=O)N(Cc2cc(F)ccc2C2(C(F)F)CC2)C2CC2)c1F [I.151, N-cyclopropyl-3-(difluoromethyl)-N-{2-[1-(difluoromethyl)-cyclopropyl]-5-fluorobenzyl}-5-fluoro-1-methyl-1H-pyrazole-4-carboxamide]
Efficacy (Uromyces appendiculatus; Table B1, dose 10 ppm): 100%
Efficacy (Uromyces appendiculatus; Table B1, dose 100 ppm): 100%
protection (Uromyces appendiculatus): total protection

logP [1]: 4.67
Compound: CCC1(c2cc(C)c(F)cc2CN(C(=O)c2c(C(F)F)nn(C)c2F)C2CC2)CC1 [I.106]
Efficacy (Phakopsora pachyrhizi; Table C3, dose 10 ppm): 100% and 98%

Compound: Cn1nc(C(F)F)c(C(=O)N(Cc2cc(Cl)ccc2C2CC2)C2CC2)c1F [41 from WO-2010/130767, N-(5-chloro-2-cyclopropylbenzyl)-N-cyclopropyl-3-(difluoromethyl)-5-fluoro-1-methyl-1H-pyrazole-4-carboxamide, reference compound]
Efficacy (Phakopsora pachyrhizi; Table C2, dose 10 ppm): 0%
protection (Phakopsora pachyrhizi): no protection

logP [1]: 3.89
Compound: Cn1nc(C(F)F)c(C(=O)N(Cc2cc(F)ccc2C2(C)CC2)C2CC2)c1F [I.066]
Efficacy (Uromyces appendiculatus; Table B1, dose 10 ppm): 100%
Efficacy (Uromyces appendiculatus; Table B1, dose 100 ppm): 100%
protection (Uromyces appendiculatus): total protection
Efficacy (Phakopsora pachyrhizi; Table C3, dose 10 ppm): 89%

logP [1]: 4.04
Compound: Cn1nc(C(F)F)c(C(=O)N(Cc2cc(F)ccc2C2(C)CC2)C2CC2)c1Cl [I.067]
Efficacy (Uromyces appendiculatus; Table B2, dose 10 ppm): 93%
Efficacy (Uromyces appendiculatus; Table B2, dose 100 ppm): 100%
protection (Uromyces appendiculatus): at least 90%
Efficacy (Puccinia recondita; Table A1, dose 10 ppm): 98%
Efficacy (Puccinia recondita; Table A1, dose 100 ppm): 100%
protection (Puccinia recondita): at least 90%

Compound: Cc1ccc(C(F)(F)F)c(CN(C(=O)c2c(C(F)F)nn(C)c2F)C2CC2)c1 [12 from WO-2010/130767, N-cyclopropyl-3-(difluoromethyl)-5-fluoro-1-methyl-N-[5-methyl-2-(trifluoromethyl)benzyl]-1H-pyrazole-4-carboxamide, reference compound]
Efficacy (Phakopsora pachyrhizi; Table C1, dose 10 ppm): 0%
protection (Phakopsora pachyrhizi): no protection

logP [1]: 4.59
Compound: CCC1(c2ccc(Cl)cc2CN(C(=O)c2c(C(F)F)nn(C)c2F)C2CC2)CC1 [I.110]
Efficacy (Phakopsora pachyrhizi; Table C2, dose 10 ppm): 98%
protection (Phakopsora pachyrhizi): at least 90%

From patent publication US10070645B2, “N-cycloalkyl-N-{[2-(1-substitutedcycloalkyl)phenyl]methylene}-(thio)carboxamide derivatives” (BAYER CROPSCIENCE AKTIENGESELLSCHAFT, priority 2013, dated 2018)
